According to article PMC8617627, “Novel DYRK1A Inhibitor Rescues Learning and Memory Deficits in a Mouse Model of Down Syndrome” (Pharmaceuticals, 2021):
Read-outs that look alike come from different tables or passages of the source.

How the values were obtained:
Assay in all cases: Kinase profile (33P ATP filter binding)
Assay type in all cases: biochemical
[1] = target: PIM2 (Homo sapiens, UniProt Q9P1W9); settings: read-out: Remaining protein kinase activity
[2] = target: T1, ZAP70 (Homo sapiens, UniProt P43403); settings: read-out: Remaining protein kinase activity
T1 sequence (P43403 1-619): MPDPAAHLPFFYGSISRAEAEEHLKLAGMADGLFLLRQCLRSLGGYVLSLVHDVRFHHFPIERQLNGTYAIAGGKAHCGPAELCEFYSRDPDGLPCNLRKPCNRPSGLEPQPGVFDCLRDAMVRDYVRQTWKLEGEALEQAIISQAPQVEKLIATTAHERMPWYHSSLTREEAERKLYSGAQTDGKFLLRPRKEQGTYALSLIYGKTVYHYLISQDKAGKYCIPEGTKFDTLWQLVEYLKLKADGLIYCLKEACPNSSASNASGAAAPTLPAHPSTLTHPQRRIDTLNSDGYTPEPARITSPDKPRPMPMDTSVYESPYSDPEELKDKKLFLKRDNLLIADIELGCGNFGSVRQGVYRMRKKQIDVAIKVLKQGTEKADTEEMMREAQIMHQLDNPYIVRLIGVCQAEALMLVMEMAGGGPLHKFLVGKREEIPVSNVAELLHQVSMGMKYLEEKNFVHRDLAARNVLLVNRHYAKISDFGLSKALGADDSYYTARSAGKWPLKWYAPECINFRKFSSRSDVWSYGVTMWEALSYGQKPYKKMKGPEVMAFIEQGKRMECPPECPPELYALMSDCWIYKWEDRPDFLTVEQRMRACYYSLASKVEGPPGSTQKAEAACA

[3] = target: MARK3 (Homo sapiens, UniProt P27448); settings: read-out: Remaining protein kinase activity
Sequence of MARK3 (P27448 whole entry): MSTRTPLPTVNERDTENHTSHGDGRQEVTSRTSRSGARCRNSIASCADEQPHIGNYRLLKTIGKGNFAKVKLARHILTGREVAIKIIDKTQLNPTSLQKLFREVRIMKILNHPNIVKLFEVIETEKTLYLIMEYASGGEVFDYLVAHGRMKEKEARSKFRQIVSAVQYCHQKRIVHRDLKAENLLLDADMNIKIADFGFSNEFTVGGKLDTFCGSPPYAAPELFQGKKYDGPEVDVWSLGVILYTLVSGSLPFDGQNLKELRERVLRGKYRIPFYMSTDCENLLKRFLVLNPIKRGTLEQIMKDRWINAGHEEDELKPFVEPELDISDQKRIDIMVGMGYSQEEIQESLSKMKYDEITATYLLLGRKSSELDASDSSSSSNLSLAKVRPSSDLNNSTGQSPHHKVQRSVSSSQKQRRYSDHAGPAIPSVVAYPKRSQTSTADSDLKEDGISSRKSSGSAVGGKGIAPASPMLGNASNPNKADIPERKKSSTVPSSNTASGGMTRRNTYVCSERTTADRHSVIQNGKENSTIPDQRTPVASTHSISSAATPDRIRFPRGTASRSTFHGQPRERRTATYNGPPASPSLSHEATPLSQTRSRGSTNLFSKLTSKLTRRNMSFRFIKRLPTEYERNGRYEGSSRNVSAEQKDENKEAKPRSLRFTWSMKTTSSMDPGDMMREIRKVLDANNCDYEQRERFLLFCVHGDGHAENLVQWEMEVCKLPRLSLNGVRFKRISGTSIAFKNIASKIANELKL

[4] = target: HIPK3 (Homo sapiens, UniProt Q9H422); settings: read-out: Remaining protein kinase activity
Sequence of HIPK3 (Q9H422 whole entry): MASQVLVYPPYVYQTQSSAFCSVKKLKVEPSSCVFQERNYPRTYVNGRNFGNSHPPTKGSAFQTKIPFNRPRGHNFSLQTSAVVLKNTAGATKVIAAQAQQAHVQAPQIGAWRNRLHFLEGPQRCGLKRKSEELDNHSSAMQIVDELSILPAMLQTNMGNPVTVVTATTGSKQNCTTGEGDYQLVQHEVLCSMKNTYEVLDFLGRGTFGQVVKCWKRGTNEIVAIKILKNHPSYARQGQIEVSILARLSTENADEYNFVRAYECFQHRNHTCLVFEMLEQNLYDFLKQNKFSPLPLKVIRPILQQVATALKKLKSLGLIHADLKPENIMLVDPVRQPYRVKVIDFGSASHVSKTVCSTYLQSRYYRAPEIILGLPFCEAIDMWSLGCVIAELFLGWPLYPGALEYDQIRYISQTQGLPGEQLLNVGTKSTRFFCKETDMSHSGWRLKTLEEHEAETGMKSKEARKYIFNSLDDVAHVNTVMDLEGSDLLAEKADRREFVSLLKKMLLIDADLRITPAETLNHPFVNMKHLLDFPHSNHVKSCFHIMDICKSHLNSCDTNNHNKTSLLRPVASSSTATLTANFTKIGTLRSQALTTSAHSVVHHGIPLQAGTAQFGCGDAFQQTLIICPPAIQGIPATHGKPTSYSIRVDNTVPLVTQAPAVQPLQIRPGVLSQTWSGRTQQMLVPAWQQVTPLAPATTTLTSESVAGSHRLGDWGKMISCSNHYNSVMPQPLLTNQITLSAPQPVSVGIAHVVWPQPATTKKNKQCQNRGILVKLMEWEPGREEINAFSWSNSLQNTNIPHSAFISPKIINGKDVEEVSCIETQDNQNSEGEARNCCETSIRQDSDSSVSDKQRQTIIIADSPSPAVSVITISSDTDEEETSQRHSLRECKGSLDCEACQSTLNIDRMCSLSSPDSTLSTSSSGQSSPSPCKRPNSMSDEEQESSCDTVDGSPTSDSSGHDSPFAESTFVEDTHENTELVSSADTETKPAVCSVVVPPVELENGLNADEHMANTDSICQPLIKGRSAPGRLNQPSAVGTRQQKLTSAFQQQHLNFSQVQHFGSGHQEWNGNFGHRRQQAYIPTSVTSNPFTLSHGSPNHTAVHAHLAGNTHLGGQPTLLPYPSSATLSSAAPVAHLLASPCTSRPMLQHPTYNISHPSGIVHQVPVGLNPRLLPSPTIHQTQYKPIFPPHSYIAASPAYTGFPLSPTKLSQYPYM

[5] = target: TrkA (Homo sapiens, UniProt P04629); settings: read-out: Remaining protein kinase activity
Sequence of TrkA (P04629 33-796): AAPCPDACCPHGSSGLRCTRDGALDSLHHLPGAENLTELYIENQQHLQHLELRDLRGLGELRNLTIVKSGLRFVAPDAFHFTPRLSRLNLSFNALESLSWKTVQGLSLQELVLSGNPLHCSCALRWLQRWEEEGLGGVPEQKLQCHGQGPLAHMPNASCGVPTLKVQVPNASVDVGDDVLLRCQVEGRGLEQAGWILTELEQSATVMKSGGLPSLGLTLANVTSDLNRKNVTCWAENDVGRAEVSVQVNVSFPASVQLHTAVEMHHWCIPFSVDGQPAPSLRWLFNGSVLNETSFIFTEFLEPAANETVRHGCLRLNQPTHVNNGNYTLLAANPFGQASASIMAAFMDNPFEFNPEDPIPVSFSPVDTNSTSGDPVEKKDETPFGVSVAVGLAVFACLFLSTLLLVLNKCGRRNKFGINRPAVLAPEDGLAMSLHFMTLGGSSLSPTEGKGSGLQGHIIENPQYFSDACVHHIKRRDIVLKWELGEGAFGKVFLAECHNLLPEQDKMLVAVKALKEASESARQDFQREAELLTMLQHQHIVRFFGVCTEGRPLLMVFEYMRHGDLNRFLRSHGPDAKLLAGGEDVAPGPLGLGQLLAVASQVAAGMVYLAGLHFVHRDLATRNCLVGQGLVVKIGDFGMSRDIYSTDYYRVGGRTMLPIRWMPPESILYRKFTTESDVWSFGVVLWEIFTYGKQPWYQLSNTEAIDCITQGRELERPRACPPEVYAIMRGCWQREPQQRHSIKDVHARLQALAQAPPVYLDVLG

[6] = target: MEKK1 (Homo sapiens, UniProt Q13233); settings: read-out: Remaining protein kinase activity
[7] = tested on: PHK
[8] = target: p38b MAPK (Homo sapiens, UniProt Q15759); settings: read-out: Remaining protein kinase activity
[9] = target: MELK (Homo sapiens, UniProt Q14680); settings: read-out: Remaining protein kinase activity
[10] = target: T2, BRSK1 (Homo sapiens, UniProt Q8TDC3); settings: read-out: Remaining protein kinase activity
T2 sequence (Q8TDC3 1-778): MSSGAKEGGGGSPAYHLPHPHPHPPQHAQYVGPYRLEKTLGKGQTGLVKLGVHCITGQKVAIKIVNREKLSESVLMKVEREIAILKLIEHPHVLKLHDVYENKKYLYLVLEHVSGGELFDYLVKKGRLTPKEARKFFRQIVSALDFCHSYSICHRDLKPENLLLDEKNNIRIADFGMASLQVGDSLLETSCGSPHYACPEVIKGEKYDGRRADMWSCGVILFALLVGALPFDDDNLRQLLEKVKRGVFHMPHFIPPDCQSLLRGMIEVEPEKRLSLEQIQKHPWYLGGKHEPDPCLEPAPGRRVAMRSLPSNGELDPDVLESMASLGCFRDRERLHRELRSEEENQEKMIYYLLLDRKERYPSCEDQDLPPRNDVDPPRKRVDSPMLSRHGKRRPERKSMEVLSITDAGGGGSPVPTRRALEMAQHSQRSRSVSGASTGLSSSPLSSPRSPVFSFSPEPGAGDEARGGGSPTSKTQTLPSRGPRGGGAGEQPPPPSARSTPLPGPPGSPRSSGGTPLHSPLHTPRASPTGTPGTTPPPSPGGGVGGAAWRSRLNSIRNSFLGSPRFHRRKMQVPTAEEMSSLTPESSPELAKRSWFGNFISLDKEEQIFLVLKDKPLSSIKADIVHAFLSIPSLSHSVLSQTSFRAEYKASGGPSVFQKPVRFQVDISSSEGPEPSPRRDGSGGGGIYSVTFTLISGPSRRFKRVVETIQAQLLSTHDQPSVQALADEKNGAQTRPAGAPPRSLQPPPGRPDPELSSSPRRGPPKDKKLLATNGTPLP

[11] = target: DAPK1 (Homo sapiens, UniProt P53355); settings: read-out: Remaining protein kinase activity
Sequence of DAPK1 (P53355 whole entry): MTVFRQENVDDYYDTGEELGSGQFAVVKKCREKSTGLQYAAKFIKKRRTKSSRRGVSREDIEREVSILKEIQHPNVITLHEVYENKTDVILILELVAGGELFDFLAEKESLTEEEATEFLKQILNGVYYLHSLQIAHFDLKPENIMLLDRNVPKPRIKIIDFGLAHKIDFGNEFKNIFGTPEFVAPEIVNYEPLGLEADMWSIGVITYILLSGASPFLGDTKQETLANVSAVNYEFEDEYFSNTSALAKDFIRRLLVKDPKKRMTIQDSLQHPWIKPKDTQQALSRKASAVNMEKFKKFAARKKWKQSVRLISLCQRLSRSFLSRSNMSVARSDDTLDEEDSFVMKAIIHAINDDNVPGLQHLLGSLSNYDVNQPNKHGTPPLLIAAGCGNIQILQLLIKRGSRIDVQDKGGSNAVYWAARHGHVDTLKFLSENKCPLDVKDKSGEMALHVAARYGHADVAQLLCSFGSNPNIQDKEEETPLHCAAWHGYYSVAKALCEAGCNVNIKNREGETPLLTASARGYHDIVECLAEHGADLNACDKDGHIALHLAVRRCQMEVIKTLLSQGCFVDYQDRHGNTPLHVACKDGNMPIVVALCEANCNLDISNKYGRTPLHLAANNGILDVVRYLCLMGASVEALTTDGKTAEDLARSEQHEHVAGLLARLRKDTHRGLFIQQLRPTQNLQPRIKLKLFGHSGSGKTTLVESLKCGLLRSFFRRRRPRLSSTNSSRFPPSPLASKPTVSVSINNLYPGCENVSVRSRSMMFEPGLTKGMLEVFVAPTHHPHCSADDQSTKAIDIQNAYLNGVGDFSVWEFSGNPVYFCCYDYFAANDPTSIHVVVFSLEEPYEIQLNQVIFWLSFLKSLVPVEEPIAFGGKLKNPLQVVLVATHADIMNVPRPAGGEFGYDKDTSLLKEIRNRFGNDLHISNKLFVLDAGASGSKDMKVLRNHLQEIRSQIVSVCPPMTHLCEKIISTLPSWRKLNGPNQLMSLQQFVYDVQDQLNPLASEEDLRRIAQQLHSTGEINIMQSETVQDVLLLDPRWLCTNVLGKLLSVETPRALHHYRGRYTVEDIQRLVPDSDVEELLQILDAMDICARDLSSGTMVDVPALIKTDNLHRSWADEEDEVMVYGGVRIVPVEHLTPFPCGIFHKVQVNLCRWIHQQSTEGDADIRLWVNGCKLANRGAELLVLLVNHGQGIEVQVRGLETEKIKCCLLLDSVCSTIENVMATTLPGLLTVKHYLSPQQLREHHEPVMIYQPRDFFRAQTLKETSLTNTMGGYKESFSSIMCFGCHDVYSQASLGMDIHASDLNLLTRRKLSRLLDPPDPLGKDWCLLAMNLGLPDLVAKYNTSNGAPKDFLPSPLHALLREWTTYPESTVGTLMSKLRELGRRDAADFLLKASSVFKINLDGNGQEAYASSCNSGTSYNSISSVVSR

[12] = target: PAK6 (Homo sapiens, UniProt Q9NQU5); settings: read-out: Remaining protein kinase activity
[13] = target: MST4 (Homo sapiens, UniProt Q9P289); settings: read-out: Remaining protein kinase activity
Sequence of MST4 (Q9P289 whole entry): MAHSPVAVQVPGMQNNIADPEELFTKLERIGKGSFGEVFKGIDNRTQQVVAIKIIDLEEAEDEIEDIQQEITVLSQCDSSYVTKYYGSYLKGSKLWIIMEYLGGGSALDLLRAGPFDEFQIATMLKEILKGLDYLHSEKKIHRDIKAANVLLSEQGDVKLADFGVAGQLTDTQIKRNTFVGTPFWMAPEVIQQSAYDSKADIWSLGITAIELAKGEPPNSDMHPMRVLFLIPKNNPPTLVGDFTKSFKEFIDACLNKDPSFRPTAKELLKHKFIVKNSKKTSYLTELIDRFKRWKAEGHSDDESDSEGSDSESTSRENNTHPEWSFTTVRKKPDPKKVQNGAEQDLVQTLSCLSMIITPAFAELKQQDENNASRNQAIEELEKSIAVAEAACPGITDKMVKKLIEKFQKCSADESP

Sequence of PIM2 (Q9P1W9 whole entry): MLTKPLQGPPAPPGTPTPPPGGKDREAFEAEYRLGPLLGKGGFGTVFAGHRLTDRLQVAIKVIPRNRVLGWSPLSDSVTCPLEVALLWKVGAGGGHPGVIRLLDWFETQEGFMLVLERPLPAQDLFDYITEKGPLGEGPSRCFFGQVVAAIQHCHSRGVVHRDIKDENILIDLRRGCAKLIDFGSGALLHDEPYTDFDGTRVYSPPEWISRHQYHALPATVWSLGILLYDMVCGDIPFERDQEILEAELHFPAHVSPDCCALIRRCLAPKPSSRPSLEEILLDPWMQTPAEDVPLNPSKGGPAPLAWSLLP

COc1ccc2sc(-c3cncc(NC(C)=O)c3)nc2c1 [PST-001, N-(5-(5-Methoxybenzo[d]thiazol-2-yl)pyridin-3-yl)acetamide]
remaining activity at 1 µM [1]: 120% | remaining activity at 100 µM [1]: 102% | remaining activity at 1 µM [2]: 123% | remaining activity at 100 µM [2]: 131% | remaining activity at 1 µM [3]: 99% | remaining activity at 100 µM [3]: 95% | remaining activity at 1 µM [4]: 123% | remaining activity at 100 µM [4]: 100% | remaining activity at 1 µM [5]: 111% | remaining activity at 100 µM [5]: 45% | remaining activity at 1 µM [6]: 126% | remaining activity at 100 µM [6]: 109% | Remaining protein kinase activity ([7]; 100 μM): 83% | remaining activity at 100 µM [8]: 115% | remaining activity at 1 µM [9]: 99% | remaining activity at 100 µM [9]: 44% | remaining activity at 1 µM [10]: 114% | remaining activity at 100 µM [10]: 111% | remaining activity at 1 µM [11]: 114% | remaining activity at 100 µM [11]: 101% | remaining activity at 1 µM [12]: 112% | remaining activity at 100 µM [12]: 113% | remaining activity at 1 µM [13]: 112% | remaining activity at 100 µM [13]: 113%

COc1ccc2sc(-c3cncc(N)c3)nc2c1 [compound 1, 5-(5-Methoxybenzo[d]thiazol-2-yl)pyridin-3-amine]
remaining activity at 1 µM ([1]; PIM2, 1 μM): 110% | remaining activity at 100 µM ([1]; PIM2, 100 μM): 36% | remaining activity at 1 µM ([2]; ZAP70, 1 μM): 119% | remaining activity at 100 µM ([2]; ZAP70, 100 μM): 63% | remaining activity at 1 µM ([3]; MARK3, 1 μM): 98% | remaining activity at 100 µM ([3]; MARK3, 100 μM): 34% | remaining activity at 1 µM ([4]; HIPK3, 1 μM): 120% | remaining activity at 100 µM ([4]; HIPK3, 100 μM): 28% | remaining activity at 1 µM ([5]; TrkA, 1 μM): 104% | remaining activity at 100 µM ([5]; TrkA, 100 μM): 33% | remaining activity at 1 µM ([6]; MEKK1, 1 μM): 132% | remaining activity at 100 µM ([6]; MEKK1, 100 μM): 107% | Remaining protein kinase activity ([7]; 1 μM): 101% | Remaining protein kinase activity ([7]; 100 μM): 52% | remaining activity at 1 µM ([8]; p38b MAPK, 1 μM): 119% | remaining activity at 100 µM ([8]; p38b MAPK, 100 μM): 101% | remaining activity at 1 µM ([9]; MELK, 1 μM): 96% | remaining activity at 100 µM ([9]; MELK, 100 μM): 12% | remaining activity at 1 µM ([10]; BRSK1, 1 μM): 115% | remaining activity at 100 µM ([10]; BRSK1, 100 μM): 37% | remaining activity at 1 µM ([11]; DAPK1, 1 μM): 103% | remaining activity at 100 µM ([11]; DAPK1, 100 μM): 58% | remaining activity at 1 µM ([12]; PAK6, 1 μM): 108% | remaining activity at 100 µM ([12]; PAK6, 100 μM): 80% | remaining activity at 1 µM ([13]; MST4, 1 μM): 101% | remaining activity at 100 µM ([13]; MST4, 100 μM): 72%
